In ChEMBL document CHEMBL3232845 (Bioorg Med Chem Lett, 2014):

How the values were obtained:
[1] = AUC in mouse at 30 mg/kg, po; type: ADME, organism-based; parameters: dose 30 mg/kg, route oral; details: plasma
[2] = molecular target: Myotonin-protein kinase (Homo sapiens) (UniProt Q09013); test: Inhibition of human DMPK assessed as enzyme activity at 1 uM relative to control; parameters: scale not given: the % may be the effect or the level left
[3] = molecular target: Proto-oncogene tyrosine-protein kinase Src (Homo sapiens) (UniProt P12931); test: Inhibition of human Src assessed as enzyme activity at 1 uM relative to control; parameters: scale not given: the % may be the effect or the level left
[4] = molecular target: Insulin receptor-related protein (Homo sapiens) (UniProt P14616); test: Inhibition of human IRR assessed as enzyme activity at 1 uM relative to control; parameters: scale not given: the % may be the effect or the level left
[5] = molecular target: CDK9/cyclin T1 (Homo sapiens) (UniProt O60563+P50750); test: Inhibition of human CDK9/cyclinT1 assessed as enzyme activity at 1 uM relative to control; type: protein-complex assay; parameters: scale not given: the % may be the effect or the level left
[6] = molecular target: Calcium/calmodulin-dependent protein kinase type II subunit gamma (Homo sapiens) (UniProt Q13555); test: Inhibition of human CAMK2g assessed as enzyme activity at 1 uM relative to control; parameters: scale not given: the % may be the effect or the level left
[7] = molecular target: Serine/threonine-protein kinase PAK 2 (Homo sapiens) (UniProt Q13177); test: Inhibition of human PAK2 assessed as enzyme activity at 1 uM relative to control; parameters: scale not given: the % may be the effect or the level left
Chain of Serine/threonine-protein kinase PAK 2 (Homo sapiens) (Q13177 whole entry): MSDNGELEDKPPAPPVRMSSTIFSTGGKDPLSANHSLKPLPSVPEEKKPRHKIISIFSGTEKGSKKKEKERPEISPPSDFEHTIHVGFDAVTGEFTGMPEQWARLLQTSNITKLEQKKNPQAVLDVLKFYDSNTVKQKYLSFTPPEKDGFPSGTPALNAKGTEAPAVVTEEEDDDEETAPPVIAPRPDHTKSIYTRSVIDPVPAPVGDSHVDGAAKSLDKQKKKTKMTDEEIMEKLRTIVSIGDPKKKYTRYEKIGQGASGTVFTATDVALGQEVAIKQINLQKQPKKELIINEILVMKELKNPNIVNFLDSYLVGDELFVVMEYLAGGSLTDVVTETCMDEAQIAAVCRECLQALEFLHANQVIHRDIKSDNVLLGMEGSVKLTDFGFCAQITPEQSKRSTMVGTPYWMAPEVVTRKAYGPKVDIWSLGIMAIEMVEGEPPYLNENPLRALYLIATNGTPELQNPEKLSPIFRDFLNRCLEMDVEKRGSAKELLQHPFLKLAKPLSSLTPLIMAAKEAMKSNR

[8] = molecular target: Protein kinase C beta type (Homo sapiens) (UniProt P05771); test: Inhibition of human PKCbeta1 assessed as enzyme activity at 1 uM relative to control; parameters: scale not given: the % may be the effect or the level left
[9] = molecular target: Tyrosine-protein kinase HCK (Homo sapiens) (UniProt P08631); test: Inhibition of human Hck assessed as enzyme activity at 1 uM relative to control; parameters: scale not given: the % may be the effect or the level left
[10] = molecular target: MAP kinase-activated protein kinase 3 (Homo sapiens) (UniProt Q16644); test: Inhibition of human MAPKAP-K3 assessed as enzyme activity at 1 uM relative to control; parameters: scale not given: the % may be the effect or the level left
Chain of MAP kinase-activated protein kinase 3 (Homo sapiens) (Q16644 whole entry, looked up): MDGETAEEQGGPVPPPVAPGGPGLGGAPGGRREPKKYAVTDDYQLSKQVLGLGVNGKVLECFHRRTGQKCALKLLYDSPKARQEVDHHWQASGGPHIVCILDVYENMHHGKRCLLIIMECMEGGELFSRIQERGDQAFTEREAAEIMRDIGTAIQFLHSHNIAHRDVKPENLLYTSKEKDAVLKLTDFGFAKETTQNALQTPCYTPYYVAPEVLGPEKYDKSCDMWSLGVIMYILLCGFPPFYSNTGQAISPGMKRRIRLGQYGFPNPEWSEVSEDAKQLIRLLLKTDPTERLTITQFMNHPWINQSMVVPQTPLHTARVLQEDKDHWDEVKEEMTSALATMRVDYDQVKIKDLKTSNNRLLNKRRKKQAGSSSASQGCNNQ

[11] = Antitumor activity against human LOX cells expressing B-Raf V600E mutant xenografted in nude mouse assessed as tumor growth inhibition at 30 mg/kg qd for 4 days measured on day 5; type: functional; details: read-out: TGI
[12] = molecular target: Glycogen synthase kinase-3 beta (Homo sapiens) (UniProt P49841); test: Inhibition of human GSK3beta assessed as enzyme activity at 1 uM relative to control; parameters: scale not given: the % may be the effect or the level left
[13] = molecular target: Serine/threonine-protein kinase PAK 5 (Homo sapiens) (UniProt Q9P286); test: Inhibition of human PAK5 assessed as enzyme activity at 1 uM relative to control; parameters: scale not given: the % may be the effect or the level left
[14] = molecular target: Protein kinase C iota type (Homo sapiens) (UniProt P41743); test: Inhibition of human PKCiota assessed as enzyme activity at 1 uM relative to control; parameters: scale not given: the % may be the effect or the level left
[15] = molecular target: Discoidin domain-containing receptor 2 (Homo sapiens) (UniProt Q16832); test: Inhibition of human DDR2 assessed as enzyme activity at 1 uM relative to control; parameters: scale not given: the % may be the effect or the level left
[16] = molecular target: Mast/stem cell growth factor receptor Kit (Homo sapiens) (UniProt P10721); test: Inhibition of human KIT assessed as enzyme activity at 1 uM relative to control; parameters: scale not given: the % may be the effect or the level left
Chain of Mast/stem cell growth factor receptor Kit (Homo sapiens) (P10721 whole entry, canonical isoform): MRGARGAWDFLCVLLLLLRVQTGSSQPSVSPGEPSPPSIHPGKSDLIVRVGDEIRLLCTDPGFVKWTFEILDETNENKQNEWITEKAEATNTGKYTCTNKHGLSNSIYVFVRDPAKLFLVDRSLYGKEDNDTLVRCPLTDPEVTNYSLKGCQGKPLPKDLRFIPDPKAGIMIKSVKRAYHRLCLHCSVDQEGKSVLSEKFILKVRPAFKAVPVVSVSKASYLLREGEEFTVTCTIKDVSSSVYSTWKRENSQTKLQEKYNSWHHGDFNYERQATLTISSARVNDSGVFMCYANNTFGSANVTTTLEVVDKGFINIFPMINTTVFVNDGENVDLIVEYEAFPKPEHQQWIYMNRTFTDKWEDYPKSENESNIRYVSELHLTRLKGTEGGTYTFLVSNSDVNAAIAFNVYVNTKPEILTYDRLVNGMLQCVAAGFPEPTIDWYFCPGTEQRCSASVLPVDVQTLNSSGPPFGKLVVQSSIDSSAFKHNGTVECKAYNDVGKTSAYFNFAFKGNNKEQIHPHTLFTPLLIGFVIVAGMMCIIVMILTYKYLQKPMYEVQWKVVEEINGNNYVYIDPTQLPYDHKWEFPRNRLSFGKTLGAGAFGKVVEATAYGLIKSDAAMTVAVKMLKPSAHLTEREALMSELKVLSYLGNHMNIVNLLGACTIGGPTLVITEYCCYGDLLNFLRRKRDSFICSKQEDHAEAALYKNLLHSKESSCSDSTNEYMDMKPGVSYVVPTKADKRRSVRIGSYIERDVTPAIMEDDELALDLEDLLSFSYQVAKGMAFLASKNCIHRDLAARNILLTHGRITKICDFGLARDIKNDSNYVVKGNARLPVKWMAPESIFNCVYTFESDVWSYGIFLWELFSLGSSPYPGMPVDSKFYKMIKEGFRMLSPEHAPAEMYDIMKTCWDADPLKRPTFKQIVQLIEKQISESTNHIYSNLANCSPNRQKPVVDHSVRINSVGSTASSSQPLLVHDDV

[17] = molecular target: Casein kinase I isoform delta (Homo sapiens) (UniProt P48730); test: Inhibition of human CK1delta assessed as enzyme activity at 1 uM relative to control; parameters: scale not given: the % may be the effect or the level left
[18] = molecular target: Hepatocyte growth factor receptor (Homo sapiens) (UniProt P08581); test: Inhibition of human Met assessed as enzyme activity at 1 uM relative to control; parameters: scale not given: the % may be the effect or the level left
[19] = molecular target: Serine/threonine-protein kinase PLK1 (Homo sapiens) (UniProt P53350); test: Inhibition of human Plk1 assessed as enzyme activity at 1 uM relative to control; parameters: scale not given: the % may be the effect or the level left
Chain of Serine/threonine-protein kinase PLK1 (Homo sapiens) (P53350 whole entry): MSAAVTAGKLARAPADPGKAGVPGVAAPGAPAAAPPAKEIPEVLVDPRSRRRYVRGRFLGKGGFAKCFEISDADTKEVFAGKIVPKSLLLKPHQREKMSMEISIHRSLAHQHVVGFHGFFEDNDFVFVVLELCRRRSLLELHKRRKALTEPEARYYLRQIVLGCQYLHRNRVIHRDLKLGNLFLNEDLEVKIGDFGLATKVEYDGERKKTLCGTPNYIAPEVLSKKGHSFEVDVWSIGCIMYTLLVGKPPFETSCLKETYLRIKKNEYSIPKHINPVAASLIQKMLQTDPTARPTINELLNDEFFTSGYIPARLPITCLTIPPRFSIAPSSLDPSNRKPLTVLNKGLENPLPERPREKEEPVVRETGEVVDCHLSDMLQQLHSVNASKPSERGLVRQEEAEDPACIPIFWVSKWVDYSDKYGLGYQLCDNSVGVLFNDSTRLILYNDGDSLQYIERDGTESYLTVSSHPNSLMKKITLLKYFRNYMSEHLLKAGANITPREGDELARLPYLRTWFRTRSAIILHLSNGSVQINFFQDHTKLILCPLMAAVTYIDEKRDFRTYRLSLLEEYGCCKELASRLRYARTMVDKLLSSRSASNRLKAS

[20] = molecular target: Vascular endothelial growth factor receptor 1 (Homo sapiens) (UniProt P17948); test: Inhibition of human Flt1 assessed as enzyme activity at 1 uM relative to control; parameters: scale not given: the % may be the effect or the level left
[21] = molecular target: Death-associated protein kinase 3 (Homo sapiens) (UniProt O43293); test: Inhibition of human DAPK3 assessed as enzyme activity at 1 uM relative to control; parameters: scale not given: the % may be the effect or the level left
Chain of Death-associated protein kinase 3 (Homo sapiens) (O43293 whole entry, looked up): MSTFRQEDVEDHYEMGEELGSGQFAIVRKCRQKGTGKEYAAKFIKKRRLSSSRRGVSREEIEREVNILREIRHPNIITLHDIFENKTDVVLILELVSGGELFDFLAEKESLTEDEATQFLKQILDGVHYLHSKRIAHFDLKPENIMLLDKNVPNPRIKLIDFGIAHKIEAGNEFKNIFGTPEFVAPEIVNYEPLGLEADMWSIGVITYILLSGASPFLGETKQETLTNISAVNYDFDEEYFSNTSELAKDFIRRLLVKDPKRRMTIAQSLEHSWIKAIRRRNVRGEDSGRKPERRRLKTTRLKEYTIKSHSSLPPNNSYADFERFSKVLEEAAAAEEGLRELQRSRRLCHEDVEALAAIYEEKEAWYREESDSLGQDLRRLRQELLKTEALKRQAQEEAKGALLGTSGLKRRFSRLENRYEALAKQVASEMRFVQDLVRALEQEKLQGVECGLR

[22] = molecular target: Tyrosine-protein kinase Lck (Homo sapiens) (UniProt P06239); test: Inhibition of human Lck assessed as enzyme activity at 1 uM relative to control; parameters: scale not given: the % may be the effect or the level left
Chain of Tyrosine-protein kinase Lck (Homo sapiens) (P06239 2-509 limits assumed): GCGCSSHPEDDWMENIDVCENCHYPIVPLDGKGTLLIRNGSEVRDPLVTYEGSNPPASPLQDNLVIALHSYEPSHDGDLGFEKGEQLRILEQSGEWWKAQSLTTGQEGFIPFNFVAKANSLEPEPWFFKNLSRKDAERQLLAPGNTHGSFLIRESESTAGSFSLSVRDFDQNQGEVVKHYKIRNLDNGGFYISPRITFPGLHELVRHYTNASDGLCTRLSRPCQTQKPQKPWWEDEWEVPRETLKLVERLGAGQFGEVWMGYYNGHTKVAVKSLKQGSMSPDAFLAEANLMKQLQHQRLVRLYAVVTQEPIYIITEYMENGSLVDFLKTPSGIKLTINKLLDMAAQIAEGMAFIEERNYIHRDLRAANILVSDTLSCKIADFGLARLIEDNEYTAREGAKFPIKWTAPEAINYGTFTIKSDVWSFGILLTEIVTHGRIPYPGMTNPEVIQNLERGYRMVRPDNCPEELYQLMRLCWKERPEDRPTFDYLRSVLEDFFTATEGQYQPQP

[23] = molecular target: Ephrin type-A receptor 7 (Homo sapiens) (UniProt Q15375); test: Inhibition of human EphA7 assessed as enzyme activity at 1 uM relative to control; parameters: scale not given: the % may be the effect or the level left
[24] = molecular target: Tyrosine-protein kinase Yes (Homo sapiens) (UniProt P07947); test: Inhibition of human Yes assessed as enzyme activity at 1 uM relative to control; parameters: scale not given: the % may be the effect or the level left
[25] = molecular target: Macrophage colony-stimulating factor 1 receptor (Homo sapiens) (UniProt P07333); test: Inhibition of human Fms assessed as enzyme activity at 1 uM relative to control; parameters: scale not given: the % may be the effect or the level left
[26] = molecular target: G protein-coupled receptor kinase 5 (Homo sapiens) (UniProt P34947); test: Inhibition of human GRK5 assessed as enzyme activity at 1 uM relative to control; parameters: scale not given: the % may be the effect or the level left
[27] = molecular target: Ephrin type-A receptor 5 (Homo sapiens) (UniProt P54756); test: Inhibition of human EphA5 assessed as enzyme activity at 1 uM relative to control; parameters: scale not given: the % may be the effect or the level left
[28] = molecular target: Protein-tyrosine kinase 6 (Homo sapiens) (UniProt Q13882); test: Inhibition of human PTK6 assessed as enzyme activity at 1 uM relative to control; parameters: scale not given: the % may be the effect or the level left
[29] = molecular target: LIM domain kinase 1 (Homo sapiens) (UniProt P53667); test: Inhibition of human LIMK1 assessed as enzyme activity at 1 uM relative to control; parameters: scale not given: the % may be the effect or the level left
[30] = molecular target: CDK2/Cyclin A2 (Homo sapiens) (UniProt P24941+P20248); test: Inhibition of human CDK2/cyclinA assessed as enzyme activity at 1 uM relative to control; type: protein-complex assay; parameters: scale not given: the % may be the effect or the level left
[31] = molecular target: Serine/threonine-protein kinase BRSK2 (Homo sapiens) (UniProt Q8IWQ3); test: Inhibition of human BrSK2 assessed as enzyme activity at 1 uM relative to control; parameters: scale not given: the % may be the effect or the level left
Chain of Serine/threonine-protein kinase BRSK2 (Homo sapiens) (Q8IWQ3 whole entry): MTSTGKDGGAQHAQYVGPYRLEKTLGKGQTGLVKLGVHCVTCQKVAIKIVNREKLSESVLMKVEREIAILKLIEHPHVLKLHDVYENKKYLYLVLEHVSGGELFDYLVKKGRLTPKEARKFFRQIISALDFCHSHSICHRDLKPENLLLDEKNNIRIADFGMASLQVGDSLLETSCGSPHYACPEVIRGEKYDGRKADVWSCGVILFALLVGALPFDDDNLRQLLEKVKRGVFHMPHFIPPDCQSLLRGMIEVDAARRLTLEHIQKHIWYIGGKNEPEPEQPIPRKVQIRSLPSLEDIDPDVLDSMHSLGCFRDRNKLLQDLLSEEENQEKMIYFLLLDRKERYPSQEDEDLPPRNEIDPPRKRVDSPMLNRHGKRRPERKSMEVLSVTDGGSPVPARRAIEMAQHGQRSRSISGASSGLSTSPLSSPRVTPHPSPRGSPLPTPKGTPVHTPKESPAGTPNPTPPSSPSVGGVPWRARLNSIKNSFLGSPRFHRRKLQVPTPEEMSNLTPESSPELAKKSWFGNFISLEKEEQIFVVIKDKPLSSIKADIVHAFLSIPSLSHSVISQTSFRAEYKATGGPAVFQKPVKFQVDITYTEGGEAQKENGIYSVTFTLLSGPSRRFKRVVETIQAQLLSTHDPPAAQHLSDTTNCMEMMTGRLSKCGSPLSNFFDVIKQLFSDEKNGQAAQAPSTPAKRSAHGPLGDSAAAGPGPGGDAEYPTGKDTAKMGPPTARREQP

[32] = molecular target: RAC-alpha serine/threonine-protein kinase (Homo sapiens) (UniProt P31749); test: Inhibition of human AKT1 assessed as enzyme activity at 1 uM relative to control; parameters: scale not given: the % may be the effect or the level left
Chain of RAC-alpha serine/threonine-protein kinase (Homo sapiens) (P31749 whole entry): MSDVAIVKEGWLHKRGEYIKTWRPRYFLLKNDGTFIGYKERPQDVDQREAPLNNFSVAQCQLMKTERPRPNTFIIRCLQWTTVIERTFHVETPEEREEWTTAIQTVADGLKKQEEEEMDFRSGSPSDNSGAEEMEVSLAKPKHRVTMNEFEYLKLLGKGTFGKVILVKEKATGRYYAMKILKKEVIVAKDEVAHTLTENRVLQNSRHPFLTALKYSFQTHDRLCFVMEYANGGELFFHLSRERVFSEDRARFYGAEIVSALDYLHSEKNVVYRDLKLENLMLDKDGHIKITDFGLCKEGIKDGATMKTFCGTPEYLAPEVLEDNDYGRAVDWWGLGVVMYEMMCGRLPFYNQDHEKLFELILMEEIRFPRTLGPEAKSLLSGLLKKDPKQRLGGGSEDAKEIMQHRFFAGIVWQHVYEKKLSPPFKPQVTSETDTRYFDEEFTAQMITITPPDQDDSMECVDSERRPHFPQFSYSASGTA

[33] = molecular target: Glycogen synthase kinase-3 alpha (Homo sapiens) (UniProt P49840); test: Inhibition of human GSK3alpha assessed as enzyme activity at 1 uM relative to control; parameters: scale not given: the % may be the effect or the level left
[34] = molecular target: Cyclin-dependent kinase 2/cyclin E1 (Homo sapiens) (UniProt P24864+P24941); test: Inhibition of human CDK2/cyclinE assessed as enzyme activity at 1 uM relative to control; type: protein-complex assay; parameters: scale not given: the % may be the effect or the level left
[35] = molecular target: Testis-specific serine/threonine-protein kinase 2 (Homo sapiens) (UniProt Q96PF2); test: Inhibition of human TSSK2 assessed as enzyme activity at 1 uM relative to control; parameters: scale not given: the % may be the effect or the level left
Chain of Testis-specific serine/threonine-protein kinase 2 (Homo sapiens) (Q96PF2 whole entry): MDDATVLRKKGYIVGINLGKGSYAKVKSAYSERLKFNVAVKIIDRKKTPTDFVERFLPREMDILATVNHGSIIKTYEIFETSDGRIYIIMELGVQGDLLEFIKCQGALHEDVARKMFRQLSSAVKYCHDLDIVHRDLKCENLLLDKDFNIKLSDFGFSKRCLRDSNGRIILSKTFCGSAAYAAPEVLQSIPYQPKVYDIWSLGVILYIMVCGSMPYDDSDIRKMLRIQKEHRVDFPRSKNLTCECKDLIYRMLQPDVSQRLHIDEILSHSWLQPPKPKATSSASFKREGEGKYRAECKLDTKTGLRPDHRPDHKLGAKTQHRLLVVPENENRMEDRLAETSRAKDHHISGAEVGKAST

[36] = molecular target: Tyrosine-protein kinase receptor TYRO3 (Homo sapiens) (UniProt Q06418); test: Inhibition of human Rse assessed as enzyme activity at 1 uM relative to control; parameters: scale not given: the % may be the effect or the level left
[37] = molecular target: Serine/threonine-protein kinase Nek6 (Homo sapiens) (UniProt Q9HC98); test: Inhibition of human NEK6 assessed as enzyme activity at 1 uM relative to control; parameters: scale not given: the % may be the effect or the level left
[38] = molecular target: Serine/threonine-protein kinase VRK2 (Homo sapiens) (UniProt Q86Y07); test: Inhibition of human VRK2 assessed as enzyme activity at 1 uM relative to control; parameters: scale not given: the % may be the effect or the level left
[39] = molecular target: Tyrosine-protein kinase Mer (Homo sapiens) (UniProt Q12866); test: Inhibition of human Mer assessed as enzyme activity at 1 uM relative to control; parameters: scale not given: the % may be the effect or the level left

AUC [1]: 483 µM·h | Activity [2]: 93% | Activity [3]: 83.5% | Activity [4]: 101% | Activity [5]: 104% | Activity [6]: 104% | Activity [7]: 114% | Activity [8]: 87% | Activity [9]: 94.5% | Activity [10]: 121% | Activity [12]: 95.5% | Activity [13]: 99.5% | Activity [14]: 102% | Activity [15]: 100% | Activity [16]: 94.5% | Activity [17]: 95.5% | Activity [18]: 104% | Activity [19]: 90.5% | Activity [20]: 93.5% | Activity [22]: 87% | Activity [23]: 99% | Activity [24]: 103% | Activity [25]: 99% | Activity [26]: 102% | Activity [27]: 103% | Activity [28]: 57.5% | Activity [29]: 85% | Activity [30]: 98.5% | Activity [31]: 100% | Activity [32]: 108% | Activity [33]: 122% | Activity [34]: 106% | Activity [35]: 118% | Activity [36]: 97% | Activity [37]: 116% | Activity [38]: 102% | Activity [39]: 89.5%
SMILES: CCCS(=O)(=O)Nc1cccc(Nc2ccc3ncn(C)c(=O)c3c2)c1C#N
inhibition in vivo at 30 mg/kg [11]: 95% | Activity [21]: 110%
